Test results from patent publication US9828374B2, “Substituted pyrazino[2,2-a]isoquinoline derivatives” (Hoffmann-La Roche Inc., priority 2014, dated 2017).

Legend:
mouse TAAR1 = mouse TAAR1 (Mus musculus (Mouse), UniProt Q923Y8); test: Radioligand binding assay on mouse TAAR1; conditions: mouse TAAR1, HEK-293 membranes; first value of the mouse/rat pair
Procedure: (§1) Construction of TAAR Expression Plasmids and Stably Transfected Cell Lines
(§2) For the construction of expression plasmids the coding sequences of human, rat and mouse TAAR 1 were amplified from genomic DNA essentially as described by Lindemann et al..
(§3) The Expand High Fidelity PCR System (Roche Diagnostics) was used with 1.5 mM Mg^2+ and purified PCR products were cloned into pCR2.1-TOPO cloning vector (Invitrogen) following the instructions of the manufacturer. PCR products were subcloned into the pIRESneo2 vector (BD Clontech, Palo Alto, Calif.), and expression vectors were sequence verified before introduction in cell lines.
(§4) HEK293 cells (ATCC # CRL-1573) were cultured essentially as described by Lindemann et al. (2005). For the generation of stably transfected cell lines HEK293 cells were transfected with the pIRESneo2 expression plasmids containing the TAAR coding sequences (described above) with Lipofectamine 2000 (Invitrogen) according to the instructions of the manufacturer, and 24 hrs post transfection the culture medium was supplemented with 1 mg/ml G418 (Sigma, Buchs, Switzerland). After a culture period of about 10 d clones were isolated, expanded and tested for responsiveness to trace amines (all compounds purchased from Sigma) with the cAMP Biotrak Enzyme immunoassay (EIA) System (Amersham) following the non-acetylation EIA procedure provided by the manufacturer.
Radioligand Binding Assay on Mouse TAAR1
(§5) Membrane Preparation and Radioligand Binding.
(§6) HEK-293 cells stably expressing mouse TAAR1 were maintained at 37° C. and 5% CO2 in DMEM high glucose medium, containing fetal calf serum (10%, heat inactivated for 30 min at 56° C.), penicillin/streptomycin (1%), and 375 μg/ml geneticin (Gibco). Cells were released from culture flasks using trypsin/EDTA, harvested, washed twice with ice-cold PBS (without Ca^2+ and Mg^2+), pelleted at 1,000 rpm for 5 min at 4° C., frozen and stored at −80° C. Frozen pellets were suspended in 20 ml HEPES-NaOH (20 mM, pH 7.4) containing 10 mM EDTA and homogenized with a Polytron (PT 6000, Kinematica) at 14,000 rpm for 20 s. The homogenate was centrifuged at 48,000×g for 30 min at 4° C. Subsequently, the supernatant was removed and discarded, and the pellet resuspended in 20 ml HEPES-NaOH (20 mM, pH 7.4) containing 0.1 mM EDTA using the Polytron (20 s at 14,000 rpm). This procedure was repeated and the final pellet resuspended in HEPES-NaOH containing 0.1 mM EDTA and homogenized using the Polytron. Typically, aliquots of 2 ml membrane portions were stored at −80° C. With each new membrane batch the dissociation constant (Kd) was determined via a saturation curve. […] Nonspecific binding was defined as the amount of ^3[H]-(S)-4-[(ethyl-phenyl-amino)-methyl]-4,5-dihydro-oxazol-2-ylamine bound in the presence of 10 μM unlabeled ligand. All compounds were tested at a broad range of concentrations (10 pM to 10 μM) in duplicates. […] The 96 deep well plates were incubated for 1 hr at 4° C. Incubations were terminated by rapid filtration through Unifilter-96 plates (Packard Instrument Company) and glass filters GF/C (Perkin Elmer) presoaked for 1 hr in polyethylenimine (0.3%) and washed 3 times with 1 ml of cold binding buffer. After addition of 45 μl of Microscint 40 (PerkinElmer) the Unifilter-96 plate was sealed and after 1 hr the radioactivity counted using a TopCount Microplate Scintillation Counter (Packard Instrument Company).

rat TAAR1 = rat TAAR1 (Rattus norvegicus (Rat), UniProt Q923Y9); test: Radioligand binding assay on rat TAAR1; conditions: rat TAAR1, HEK-293 membranes; second value of the mouse/rat pair
Procedure: as §1, §2, §3, §4
Radioligand Binding Assay on Rat TAAR1
as §5
as §6, with “rat” for “mouse”, “[H]-(S)-4-[(ethyl-phenyl-amino)-methyl]-4,5-dihydro-oxazol-2-ylamine” for “^3[H]-(S)-4-[(ethyl-phenyl-amino)-methyl]-4,5-dihydro-oxazol-2-ylamine”, “[…]” for “pM”

Chain of rat TAAR1 (Q923Y9 whole entry): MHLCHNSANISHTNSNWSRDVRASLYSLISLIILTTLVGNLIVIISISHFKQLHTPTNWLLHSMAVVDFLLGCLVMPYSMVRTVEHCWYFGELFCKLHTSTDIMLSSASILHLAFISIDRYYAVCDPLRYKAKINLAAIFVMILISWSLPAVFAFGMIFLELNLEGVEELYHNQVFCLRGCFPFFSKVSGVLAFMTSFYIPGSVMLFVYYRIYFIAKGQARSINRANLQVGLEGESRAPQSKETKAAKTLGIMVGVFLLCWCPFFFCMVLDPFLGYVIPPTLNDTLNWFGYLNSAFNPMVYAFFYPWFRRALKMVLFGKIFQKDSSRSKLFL
Chain of mouse TAAR1 (Q923Y8 whole entry): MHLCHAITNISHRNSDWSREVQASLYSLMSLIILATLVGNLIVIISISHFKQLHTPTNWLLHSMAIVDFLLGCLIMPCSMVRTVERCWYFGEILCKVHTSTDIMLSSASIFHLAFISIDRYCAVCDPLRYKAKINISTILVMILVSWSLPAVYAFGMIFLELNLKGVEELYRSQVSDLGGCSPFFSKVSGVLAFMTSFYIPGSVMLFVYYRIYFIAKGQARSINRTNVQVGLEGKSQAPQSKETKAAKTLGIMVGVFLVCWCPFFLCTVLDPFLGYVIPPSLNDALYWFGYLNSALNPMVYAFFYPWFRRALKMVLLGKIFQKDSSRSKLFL

Structure (SMILES)	Ki (mouse TAAR1) [µM]	Ki (rat TAAR1) [µM]
O=C(Nc1ccc2c(c1)CCN1CCNC[C@H]21)c1ccc(Cl)cc1 [Example 8, N-[(11bS)-2,3,4,6,7,11b-hexahydro-1H-pyrazino[2,1-a]isoquinolin-9-yl]-4-chloro-benzamide]	0.0075	0.0063
Cc1nsc(Nc2ccc3c(c2)CCN2CCNC[C@@H]32)n1 [Example 40, (R)-N-(2,3,4,6,7,11b-hexahydro-1H-pyrazino[2,1-a]isoquinolin-9-yl)-3-methyl-1,2,4-thiadiazol-5-amine]	0.202	0.826
CC(C)c1cc(C(=O)Nc2ccc3c(c2)CCN2CCNC[C@@H]32)n(C)n1 [Example 39, (R)-N-(2,3,4,6,7,11b-hexahydro-1H-pyrazino[2,1-a]isoquinolin-9-yl)-3-isopropyl-1-methyl-1H-pyrazole-5-carboxamide]	1.07	0.869
Fc1cccc2c1CCN1CCNC[C@@H]21 [Example 30, (11bR)-8-fluoro-2,3,4,6,7,11b-hexahydro-1H-pyrazino[2,1-a]isoquinoline]	0.176	0.201
c1cc2c(cc1Nc1ncc(C3CC3)cn1)CCN1CCNC[C@@H]21 [Example 14, (11bR)-N-(5-cyclopropylpyrimidin-2-yl)-2,3,4,6,7,11b-hexahydro-1H-pyrazino[2,1-a]isoquinolin-9-amine]	0.0066	0.0192

More lines, now with the values ahead:

Ki (mouse TAAR1) [µM]	Ki (rat TAAR1) [µM]	Structure (SMILES)
0.835	1.73	Fc1c(Nc2cc(Cl)nc(C(F)(F)F)n2)ccc2c1CCN1CCNC[C@H]21 [Example 31, (11bS)-N-[6-chloro-2-(trifluoromethyl)pyrimidin-4-yl]-8-fluoro-2,3,4,6,7,11b-hexahydro-1H-pyrazino[2,1-a]isoquinolin-9-amine]
0.0364	0.0112	Cc1cc(Nc2ccc3c(c2)CCN2CCNC[C@@H]32)nc(C(F)(F)F)n1 [Example 20, (11bR)-N-[6-methyl-2-(trifluoromethyl)pyrimidin-4-yl]-2,3,4,6,7,11b-hexahydro-1H-pyrazino[2,1-a]isoquinolin-9-amine]
0.0347	0.198	c1cc2c(cc1Nc1nc(C3CC3)no1)CCN1CCNC[C@@H]21 [Example 37, N-[(11R)-2,3,4,6,7,11-hexahydro-1H-pyrazino[2,1-a]isoquinolin-9-yl]-3-cyclopropyl-1,2,4-oxadiazol-5-amine]
